Assay results published in patent US20150072418A1, “HCV GENOTYPE 4D REPLICONS” (priority 2013, published 2015).

Key:
[1] = system: GT4d (34R + 232G-pool) replicon; test: HCV replicon susceptibility to antiviral agents, GT4d (34R + 232G-pool); type: cell-based; details: Hepatitis C virus, GT4d replicon with Q34R + S232G, n = 2
Procedure: (§1) All of these HCV inhibitors, as well as any other candidate agents, can be tested with the disclosed methods for their efficacy in inhibiting HCV genotype 4d. The cells are then incubated at a suitable temperature for a period time to allow the replicons to replicate in the cells. The replicons can include a reporter gene such as luciferase and in such a case, at the end of the incubation period, the cells are assayed for luciferase activity as markers for replicon levels. Luciferase expression can be quantified using a commercial luciferase assay.
(§2) Luciferase or NS3 protease activity level is then converted into percentages relative to the levels in the controls which can be untreated or treated with an agent having known activity in inhibiting the HCV.
(§3) Stable GT4d subgenomic replicons were prepared to include these double mutations (FIG. 12). Ten micrograms of in vitro transcribed 4d Rluc-Neo RNA were transfected into 1C cells. G418 selection started 2 days after transfection and plates were fixed and stained after 2 weeks of G418 selection. […] The luciferase activity of these stable replicon cells of these replicons were further compared to GT4a replicons and GT1b.
(§4) Another comparison was made, with respect to each replicon's susceptibility against HCV antiviral agents.

[2] = system: GT4d (34R + 232I-pool) replicon; test: HCV replicon susceptibility to antiviral agents, GT4d (34R + 232I-pool); type: cell-based; details: Hepatitis C virus, GT4d replicon with Q34R + S232I, n = 2
Procedure: as §1, §2, §3, §4

[3] = system: GT 4d-Neo replicons (4d-2Re and 4d-3Re), NS3 activity; test: Inhibition of NS3 activity of GT 4d-Neo replicons from pooled colonies; type: cell-based, Hepatitis C virus; details: 4d-3Re and 4d-2Re replicon cells; FIG. 3A-B
From the text: Alternately, efficacy of the HCV inhibitor can be measured by the expression or activity of the proteins encoded by the replicons. One example of such proteins is the NS3 protease, and detection of the protein expression or activity can be carried out with methods known in the art, e.g., Cheng et al., Antimicrob Agents Chemother 55:2197-205 (2011).
as §2
Two candidate HCV inhibitors, Compound A (FIG. 3A) and B (FIG. 3B) were used to test the inhibition of NS3 activities of the replicons isolated from pooled colonies (4d-2Re and 4d-3Re, see FIG. 2). […] Also observed was that NS3 activity was higher in 4d-3Re than 4d-2Re.
4000 cells/well were plated in 96-well white plates. NS3 activity was read 72 hours after plating. Values shown in FIG. 4 are mean of DMSO treated well from 3 plates.

GT4a replicon = test: HCV replicon susceptibility to antiviral agents, GT4a; type: cell-based; details: Hepatitis C virus, n = 2
Procedure: as §1, §2, §4

GT1b replicon = test: HCV replicon susceptibility to antiviral agents, GT1b; type: cell-based; details: Hepatitis C virus, n = 2
Procedure: as §1, §2, §4

CC(C)OC(=O)[C@H](C)NP(=O)(OC[C@H]1O[C@@H](n2ccc(=O)[nH]c2=O)[C@](C)(F)[C@@H]1O)Oc1ccccc1 (stereo partly drawn) [Compound A, isopropyl (2S)-2-[[[(2R,3R,4R,5R)-5-(2,4-dioxopyrimidin-1-yl)-4-fluoro-3-hydroxy-4-methyl-tetrahydrofuran-2-yl]methoxy-phenoxy-phosphoryl]amino]propanoate] was tested, and the EC50 [1] was 33 nM, the EC50 [2] was 37 nM and the “inhibition of NS3 activity” value [3] was “dose dependent inhibition”. The EC50 (GT4a replicon) was 70 nM and the EC50 (GT1b replicon) was 158 nM.
